Experimental data: US20250122217A1, “ANHYDROUS CRYSTALLINE FORMS OF 2-((4S)-6-(4-CHLOROPHENYL)-1-METHYL-4H-BENZO[C]ISOXAZOLO[4,5-E]AZEPIN-4-YL)ACETAMIDE” (CONSTELLATION PHARMACEUTICALS. INC., priority 2022, published 2025)

How the values were obtained:
[1] = Competitive slurry experiments of crystalline forms, XRD readout; type: physicochemical; conditions: for water activities at which the form is thermodynamically stable: conclusion from the competitive slurries of Table 3; for XRD result of competitive slurry: about 5-7 days
Protocol: The following competitive slurry experiments were performed using inventive anhydrous Form B and monohydrate Form A disclosed in U.S. Pat. No. 9,969,747.
Aqueous mixtures were created and tested in duplicate for water activity at ambient temperature. Amorphous Pelabresib was used to create a saturated solution in the respective solvent. The supernatant was added to solids of monohydrate Form A and anhydrous Form B and allowed to stir at the respective temperature for about 5-7 days. In all samples except for the butanol:water mixture, a small quantity of Form C was also added to the competitive slurry. Form C can be prepared by slurring amorphous pelabresib in water:ethanol (90:10) for about 5 days The results of the competitive slurries are shown below in Table 3.

[2] = Dynamic vapor sorption (DVS); type: physicochemical
in vivo = test: in vivo; set-up: species or system beagle dogs; conditions: male, beagle, dog, po, 5 mg/kg
Protocol: Single dose PK parameters in plasma were determined following oral gavage administration of micronized anhydrous Form B at 5 mg/kg to male beagle dogs (n=6/Group) in 0.5% (w/v) aqueous Methocel (4000 cps). The dose volume of PO groups was 2 mL/kg. For intravenous (0.5 mg/kg) and oral gavage (5 mg/kg), plasma samples were collected at the following time points: 0, 0.25, 0.5, 1, 2, 4, 6, 8, 12, 24 h post dose and analyzed. […] (5 mg/kg, 2.5 mg/mL, suspension).

Structure (SMILES) | water activities at which the form is thermodynamically stable [1] [%] | hygroscopicity by DVS ([2]; DVS profile, FIG. 3) | weight gain (DVS) ([2]; at 95% RH) | AUC(0-t) (in vivo) [ng·h/mL] | Cmax (in vivo) [ng/mL] | Tmax (in vivo) [h] | XRD result of competitive slurry ([1]; Form A + Form B (no Form C), 2-butanol:water (95:5), water activity 0.72, 40° C.) | XRD result of competitive slurry ([1]; Form A + Form B (no Form C), 2-butanol:water (95:5), water activity 0.72, RT) | XRD result of competitive slurry ([1]; Form A + Form B + small quantity of Form C, EtOH:water (90:10), water activity 0.54, 40° C.) | XRD result of competitive slurry ([1]; Form A + Form B + small quantity of Form C, EtOH:water (90:10), water activity 0.54, RT) | XRD result of competitive slurry ([1]; Form A + Form B + small quantity of Form C, IPA:water (98:2), water activity 0.27, 40° C.) | XRD result of competitive slurry ([1]; Form A + Form B + small quantity of Form C, IPA:water (98:2), water activity 0.27, RT) | XRD result of competitive slurry ([1]; Form A + Form B + small quantity of Form C, THF:water (10:90), water activity 0.97, 40° C.) | XRD result of competitive slurry ([1]; Form A + Form B + small quantity of Form C, THF:water (10:90), water activity 0.97, RT)
Cc1noc2c1-c1ccccc1C(c1ccc(Cl)cc1)=N[C@H]2CC(N)=O (single isomer, unassigned) [Form A, reference compound] | ≥ 97 | – | – | – | – | – | – | – | – | – | – | – | – | –
Cc1noc2c1-c1ccccc1C(c1ccc(Cl)cc1)=N[C@H]2CC(N)=O (single isomer, unassigned) [Form B] | ≤ 72 | non-hygroscopic | about 0.5% | 12100 ± 1450 | 1750 ± 225 | 1.17 ± 0.41 | – | – | – | – | – | – | – | –
Cc1noc2c1-c1ccccc1C(c1ccc(Cl)cc1)=N[C@H]2CC(N)=O [Pelabresib, 2-((4S)-6-(4-chlorophenyl)-1-methyl-4H-benzo[c]isoxazolo[4,5-e]azepin-4-yl)acetamide] | – | – | – | – | – | – | Form B | Form B | Form B | Form B | Form B + small peak | Form B | Form A | Form C
